Key:
[1] = test system: detoxification enzymes (oxidases) of honeybees; assay: Gene expression / activity of detoxification enzymes 24 hours after carbaryl exposure; assay type: in vivo; details: 200 ppm curcumin
Description: FIGS. 8 and 9 show graphs for explaining gene expression analysis of detoxification enzymes in SU (50% sugar syrup), CU (50% sugar syrup +200 ppm of curcumin), and the control group (ACET, exposed to only 2 ul of acetone and given sugar), 24 hours after being exposed to carbaryl.

[2] = test system: newly emerged honeybees (nurse bees) poisoned by carbaryl; assay: Curcumin feeding of newly emerged (nurse) honeybees topically poisoned by carbaryl; assay type: in vivo; details: for mortality rate: nurse bees, indoor feeding
Description: (§1) […] These experiments were performed separately on newly emerged honeybees and foragers. While 0.063 ug of an insecticide was administered to the chest of each newly emerged honeybee, 0.11 ug of the insecticide was applied to each forager bee. The intoxicated honeybees were exposed to carbaryl and then fed supplementary food. While the control group consumed only sugar syrup, the experimental group consumed supplementary food containing curcumin. All honeybee groups were fed for 48 hours under controlled laboratory conditions.

[3] = test system: foragers (field bees) poisoned by carbaryl; assay: Curcumin feeding of forager (field) bees topically poisoned by carbaryl; assay type: in vivo, honeybees; details: indoor feeding
Description: as §1

[4] = test system: honeybee colonies used for melon pollination; assay: Field experiment in melon greenhouses: colony strength factors; assay type: in vivo, honeybees
Description: The impact observed when adding 100 ppm of curcumin to greenhouses for growing melons was assessed. Thirty greenhouses owned by three farmers were used in this study. While one group of honeybees was given a solution supplemented with 100 ppm of curcumin (CU100), the control hives were given only 50% sugar syrup. Colony strength factors were measured every 10 days.

[5] = test system: honeybees (Apis mellifera) chronically exposed to carbaryl; assay: Long-term indoor feeding with chronic oral exposure to carbaryl; assay type: in vivo; details: 100 ppm curcumin; for mortality rate of honeybees: 10 days
Text: FIG. 4 is a graph of a Kaplan-Meier survival curve for test honeybees (Apis mellifera) chronically exposed to 2.5 and 5 ppm of carbaryl through oral exposure.
FIGS. 5A and 5B show graphs of the mortality rate of honeybees for 10 days after being chronically exposed to 2.5 ppm (5A) and 5 ppm (5B) of carbaryl.

[6] = 100 ppm curcumin, melon greenhouses at Seongju, long-term

**Q.** With `COc1cc(/C=C/C(=O)CC(=O)/C=C/c2ccc(O)c(OC)c2)ccc1O` [curcumin] as the compound, how does the “activity of the detoxification enzymes” value [1] read?
**A.** The value was “even higher level”.

**Q.** And the “mortality rate of nurse bees compared with control (in words)” value ([2]; curcumin at varying concentrations after carbaryl exposure)?
**A.** The value was “noticeable reduction”.

**Q.** And the mortality rate ([2]; 50 ppm curcumin, reduced from 80)?
**A.** Its mortality rate is 50.

**Q.** What about the mortality rate ([2]; 90 ppm curcumin, from 80) of the same compound?
**A.** Its mortality rate is 33.

**Q.** And the mortality rate ([2]; 100 ppm curcumin, reduced from 80)?
**A.** The mortality rate was 24.

**Q.** And the mortality rate ([2]; 110 ppm curcumin, from 80)?
**A.** The mortality rate was 34.

**Q.** And the mortality rate ([3]; 50 ppm curcumin, reduced from 35)?
**A.** Its mortality rate is 24.

**Q.** What about the mortality rate ([3]; 90 ppm curcumin, from 35) of the same compound?
**A.** The mortality rate was 24.

**Q.** What about the mortality rate ([3]; 100 ppm curcumin, reduced from 35) of the same compound?
**A.** Its mortality rate is 18.

**Q.** What about the mortality rate ([3]; 110 ppm curcumin, from 35) of the same compound?
**A.** The mortality rate was 24.

**Q.** And the “rate of hive weight reduction” value ([4]; 100 ppm curcumin compared with only sucrose solution)?
**A.** The value was “lower”.

**Q.** What about the “number of both adult and larval honeybees” value [4, 6] of the same compound?
**A.** The value was “tended to increase”.

**Q.** What about the “weight of honey storage (honey)” value [4, 6] of the same compound?
**A.** Its value is “no change”.

**Q.** What about the “activities of honeybees in outdoor experiments” value ([4]; group treated with 100 ppm curcumin) of the same compound?
**A.** Its value is “excellent”.

**Q.** What about the “survival rate of honeybees in exposure experiments to carbaryl” value ([5]; Kaplan-Meier, 2.5 and 5 ppm carbaryl oral) of the same compound?
**A.** Its value is “highest”.

**Q.** And the “mortality rate of honeybees” value ([5]; chronic exposure to 2.5 ppm carbaryl, control 38%)?
**A.** The value was 21%.

**Q.** And the “mortality rate of honeybees” value ([5]; chronic exposure to 5 ppm carbaryl, control 78%)?
**A.** The value was 55%.
